This note sets out measurements from patent US20100055169A1, “CATIONIC LIPIDS AND USES THEREOF” (ABBOTT LABORATORIES, priority 2008, published 2010).

What all share (format): physicochemical
The nature of data set [1]: RiboGreen assay of siRNA encapsulation efficiency, in vitro formulations of Lipid-Based Particles. Conditions: in vitro formulation b: Cationic lipid/PEG-cholesterol/DSPC/Chol 45/10/15/30 wt %, lipid:siRNA 25:1. An outline of the steps:
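siRNA in pH 4.0 citrate buffer (20 mM, 0.2 mg/mL) mixed at 60 °C with an ethanolic lipid blend (cationic lipid, cholesterol, non-cationic lipid, PEG-lipid), then diluted with PBS pH 7.4. Encapsulation efficiency from RiboGreen fluorescence (480/520 nm) with siRNA released by ethanol, Triton X-100 or phenol/chloroform.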

Data set [2] is described as follows: Particle sizing by dynamic light scattering (DynaPro plate reader), in vitro formulations. The following applies: in vitro formulation b: Cationic lipid/PEG-cholesterol/DSPC/Chol 45/10/15/30 wt %, lipid:siRNA 25:1. The procedure:
The siRNA concentrations were measured using Quanti-iT RiboGreen RNA reagent (Molecular Probes, (R11490)). Vesicle sizes were characterized by dynamic light scattering with a DynaPro™ Plate Reader (Wyatt Technology) in 96-well half-area UV plate (Coring) after diluting the formulation sample (20 μL) in phosphate buffered saline (80 μL) at a pH of about 7-8. A 1% agarose gel-based assay was used for analyzing nuclease degradation and protection. Encapsulation efficiency (EE) was calculated using data obtained from a RiboGreen assay.
Particle sizes and size distributions (PDI) were characterized by using dynamic light scattering (DLS). A DLS plate reader (Dynapro™, Wyatt Technology) was used for the DLS measurement. This DLS plate reader uses an 830 nm laser and the scattering angle is 158°. It also can control temperature from 4° C. to 70° C. A 96-well format was employed for the samples.
Samples for DLS analysis were prepared by mixing 20 μL of each sample stock solution with 80 μL PBS directly in the 96-well plate (#3697, Corning). Sample mixing was accomplished using a microplate shaker (Orbis, Mikura Ltd.). Plates were read at 20° C. with an acquisition time of 50 seconds for each sample, and data was analyzed with Wyatt Technology's Dynamics V6 software. To rule out potential multiple scattering artifacts, a second plate at 4-fold reduced sample concentrations was independently prepared by mixing 5 μL stock solutions with 95 μL PBS. Under our experimental conditions the results at the two concentrations were very similar, and the final reported result for each sample represents the average of values obtained from the two plates.

Data set [3] is described as follows: RiboGreen assay of siRNA encapsulation efficiency, in vivo formulations of Lipid-Based Particles. Conditions: lipid:siRNA 25:1. The procedure: RNA concentration and encapsulation efficiency were determined using a Quant-iT® Ribogreen RNA reagent and kit available from Invitrogen. The siRNA was released from the Lipid-Based Particle using one of the following reagents: ethanol, Triton X-100, or phenol/chloroform. The siRNA concentration is quantified using fluorescent reading at 480 nm/520 nm.
The lipid solution was prepared (10 mg/ml) by dissolving the lipid in 200 proof ethanol. The lipid mixture solution is prepared according to the above composition in Table 5.
An siRNA (TetR_ODC—12, G.G.G.G.A.A.A.G.C.U.G.G.C.A.A.G.A.U.U.U.U SEQ ID NO: 1) (ThermoFisher) solution is prepared in a concentration of 10 mg/ml by dissolving 10 mg siRNA in 1 ml of DNAse/RNAse-free distilled water.
A round bottom flask was submerged into a 65° C. water bath. Citrate buffer (37.5 ml) of pH 4.0 was pipetted into the flask. The solution was stirred by a magnetic stirring bar at a speed of 900 rpm. Both the pH 4.0 citrate buffer and the lipid solution were pre-warmed in the 65° C. water bath for about 3 minutes. A siRNA solution (0.5 ml) was pipetted into the pH 4.0 citrate buffer. The 12.5 ml lipid mixture solution was injected through a 27 gauge needle into the citrate buffer in about 30 seconds. The needle tip was inserted into the solution during the injection. The resulting solution was stirred for 5 minutes at a speed of 900 rpm. The flask was pulled up from the water bath and a 50 ml pH 7.4 PBS buffer was added into the flask. The final solution was further mixed at a speed of 900 rpm for 5 minutes. For the diafiltration process, a dialysis filter (Millipore, 100K, Cat#PXB100C50) was used to remove ethanol in the above solution. When the volume was reduced to 20 ml during the initial diafiltration, 20 ml of pH 7.4 PBS was added to the sample solution. The diafiltration was continued until the volume was reduced to 20 ml. The diafiltration process was repeated 4 times. The volume of the sample solution was reduced to about 12 ml and pH 7.4 PBS was added to make the final volume of 15 ml. The 15 ml solution was filtered sequentially through the 0.45 and 0.22 μm sterile PVDF membrane filters (Millipore) and immediately transferred into a sterile vial.

As to `CCCCC/C=C\C/C=C\CCCCCCCCOCC(CCN1CCCC1)OCCCCCCCC/C=C\C/C=C\CCCCC` (stereo not drawn) [Example 24, 1-{3,4-bis[(9Z,12Z)-octadeca-9,12-dienyloxy]butyl}pyrrolidine], the “% Encapsulation Efficiency” value in data set [1] was found to be 97.0%; in data set [3] (in vivo formulation A: Cationic lipid/Example 73/DSPC/Chol 45/10/15/30 wt %) it was 96.6%; in data set [3] (in vivo formulation B: Cationic lipid/PEG-cholesterol/DSPC/Chol 45/10/15/30 wt %) it was 89.3%; in data set [3] (in vivo formulation C: Cationic lipid/Pal-PEG-Cera/DSPC/Chol 45/10/15/30 wt %), 97.8%; in data set [3] (in vivo formulation D: Cationic lipid/Example 66/DSPC/Chol 45/10/15/30 wt %), 97.0%; in data set [3] (in vivo formulation E: Cationic lipid/Example 53/DSPC/Chol 45/10/15/30 wt %), 79.3%. Moreover, the “% Encapsulation Efficiency” value in data set [3] (in vivo formulation F: Cationic lipid/Example 54/DSPC/Chol 45/10/15/30 wt %) turned out to be 96.1%; in data set [3] (in vivo formulation G: Cationic lipid/Example 55/DSPC/Chol 45/10/15/30 wt %), 96.7%; in data set [3] (in vivo formulation H: Cationic lipid/PEG-DMPE/DSPC/Chol 45/10/15/30 wt %), 97.3%; in data set [3] (in vivo formulation I: Cationic lipid/PEG-DPPE/DSPC/Chol 45/10/15/30 wt %), 92%; in data set [3] (in vivo formulation J: Cationic lipid/PEG-DSPE/DSPC/Chol 45/10/15/30 wt %) it was 100%; in data set [3] (in vivo formulation K: Cationic lipid/PEG-DMG/DSPC/Chol 45/10/15/30 wt %) it was 99.5%. The “% Encapsulation Efficiency” value is given as 90% in data set [3] (in vivo formulation L: Cationic lipid/PEG-DPG/DSPC/Chol 45/10/15/30 wt %); 100% in data set [3] (in vivo formulation M: Cationic lipid/PEG-DSG/DSPC/Chol 45/10/15/30 wt %); 97.3% in data set [3] (in vivo formulation NN: Cationic lipid/Example 74/DSPC/Chol 45/10/15/30 wt %); 99.5% in data set [3] (in vivo formulation OO: Cationic lipid/Example 75/DSPC/Chol 45/10/15/30 wt %); 97% in data set [3] (in vivo formulation P: Cationic lipid/PEG-DSPE/DOPE/Chol 45/10/15/30 wt %); 97.4% in data set [3] (in vivo formulation PP: Cationic lipid/Example 73/Chol 45/10/45 wt %). Also, the “% Encapsulation Efficiency” value in data set [3] (in vivo formulation Q: Cationic lipid/PEG-DSPE/DOPC/Chol 45/10/15/30 wt %) and in data set [3] (in vivo formulation R: Cationic lipid/PEG-DSPE/SPC/Chol 45/10/15/30 wt %) was 97% throughout. Further, the Size in data set [2] worked out at 135.4 nm.
